For this experiment, the system named is P. falciparum 3D7 growth, pLDH absorbance. The experiment is described as follows: P. falciparum 3D7 growth inhibition, dose response, strain 3D7 (AID 2305).

This note sets out measurements from PubChem BioAssay AID2305 (GlaxoSmithKline (GSK), 2010).

Molecules are shown by their SMILES. pIC50: −log10 of the molar value.

Compound `COc1ccc(F)cc1-c1ccccc1CNC(=O)c1cnn(-c2ccc([N+](=O)[O-])cc2)c1C(F)(F)F` gave a pIC50 of 6.22. `CC(=O)c1ccc2c(c1)CCN(CCC1CCC(NC(=O)c3cc4ccccc4[nH]3)CC1)CC2` (stereo not given) had a pIC50 of 6.01. Compared with the last compound, the pIC50 is 0.21 log units lower.

In turn, `CCCCCCOc1ccc(C(=O)N[C@H]2CCN(CCCCCNC(=O)/C=C/c3ccc(Cl)c(Cl)c3)C2)cc1` had a pIC50 of 6.16. This pIC50 and that of the compound before are within 0.2 log units of each other.

For the compound `CCCCCCCN1CC[C@@H](CCCc2ccnc3ccc(OC)cc23)[C@@H](CNC)C1`, the pIC50 is 6.68.

For the compound `CC(CNC(=O)C(c1cc2ccccc2o1)N1CCN(C(c2ccccc2)c2ccccc2)CC1)c1ccccc1` (stereo not given), the pIC50 is 6.20. `Cc1cccc2[nH]c(-c3cccc(-c4ccc(NC(=O)CS(C)(=O)=O)cc4)c3)nc12` had a pIC50 of 6.00. `COc1ccc(-c2ccc(NC(=O)c3ccc(C#N)cc3)cc2)cc1CN1CCCN(C)CC1` showed a pIC50 of 6.82. This pIC50 lies 0.82 log units higher than the previous one. As to `CCN(CC)CCN(Cc1ccc(-c2ccc(Cl)cc2)cc1)C(=O)Cn1c(CCc2cccc(F)c2F)nc(=O)c2ccccc21`, the pIC50 is 6.11. On to `CC(C)[C@H](NC(=O)c1ccc(O)c(-c2ccc(Cl)c(Cl)c2)c1)C(=O)NCCN1CCOCC1`, for which the pIC50 was 6.04. `COc1ccc(-n2c(=O)c3c(n4c(SC(C)C)nnc24)-c2ccccc2CC32CCCCC2)cc1` showed a pIC50 of 6.30. `COc1cc([N+](=O)[O-])ccc1NC(=O)c1cc(Cl)ccc1O` gave a pIC50 of 5.94. As to `Cc1cc(NCCC(=O)NCCOc2ccccc2)nc(NCc2ccccc2C)n1`, the pIC50 is 6.06. With `CCN(CC)CCOc1cc2c(cc1Br)-c1cc(Br)c(OCCN(CC)CC)cc1C2=NO`, the pIC50 was 5.96.

Compound `O=C1COc2ccccc2N1C/C=C(\CN1CCC(c2ccccc2)CC1)c1cc(Cl)cc(Cl)c1` had a pIC50 of 6.68. `Cc1noc(C)c1-c1ccc(C(=C2CCCCCCC2)c2ccc(O)cc2)cc1`: the pIC50 was 5.98. The compound `COc1ccc(NC(=O)/C=C/c2ccccc2Cl)cc1OCCN1CCC(NC2CC2)CC1` showed a pIC50 of 6.08. `COc1cc(OC)c2c(C)cc(NCCCn3ccnc3)nc2c1` had a pIC50 of 6.10. `NCc1ccc(CNCc2cccc(-c3ccc(-c4nc5ccccc5[nH]4)cc3)c2)cc1` had a pIC50 of 6.14. Consider `Cc1cc(NC(=O)CCCN2CCN(c3cccc(Cl)c3Cl)CC2)ccc1N1CCN(C(C)C)CC1`, for which the pIC50 is 6.12. This pIC50 and that of the compound before are within 0.2 log units of each other. `O=C(NC1CCN(Cc2ccccc2)CC1)c1ccc(-c2nc3cc(Cl)c(Cl)cc3[nH]2)c(F)c1` had a pIC50 of 6.13. In turn, `O=C(Nc1ccc(Cl)cc1)c1cc(Cl)ccc1NC(=O)C1(c2ccc(Cl)cc2)CCCC1` had a pIC50 of 5.96. With `COc1ccc(CNCCCCCCCNCc2ccc(Cl)c(Cl)c2)cc1Cl` the figure was 5.91; with `Oc1ccc2ccccc2c1CNCC1CCCCC1`, 6.17.

`CCc1cccc(-n2nc(OCC(=O)NC3CCCC3)c3cccnc32)c1` showed a pIC50 of 6.03. This pIC50 and that of the compound before are within 0.2 log units of each other. In turn, `CCC(C)OC(=O)C1=C(C)NC2=C(C(=O)CC(c3ccc(OC)c(OC)c3)C2)C1c1ccc(O)cc1` (stereo not given) gave a pIC50 of 6.66.

With `CC(C)(C)CCN1CCC(CNC(=O)c2cc(-c3cccc(Cl)c3)cs2)C1` (stereo not given), the pIC50 is 6.09. For `CCCN(CC1CC1)c1ncc(-c2cccc(CNCc3ccccc3O)c2)cn1`, the pIC50 is 6.15.

Compound `Cc1cc(NCC2CCN(CC3CCCCC3)C2)nc(Nc2ccc(Br)cc2)n1` (stereo not given) showed a pIC50 of 6.06. `CCOc1cc2c(cc1OCC)C(c1ccc(O)c(Cl)c1)NCC2` (stereo not given) gave a pIC50 of 6.10. Take `CCCNCc1ccc(-c2ccc(CN(C(=O)c3nn(-c4ccccc4)nc3C)C(C)CN(C)C)cc2)nc1` (stereo not given): the pIC50 was 6.04. For the compound `CC(C)(C)OC(=O)N(Cc1cc(-n2nnnc2C(F)(F)F)ccc1O)[C@H]1CCCN(C(=O)OC(C)(C)C)[C@H]1c1ccccc1`, the negative logarithm of the IC50 (pIC50) is 6.14. Regarding `CCOc1ccc(-c2nonc2NC(=O)c2ccc(Cl)cc2)cc1OCC`, the pIC50 was 6.00. The compound `CC(C)(C)c1ccc2nc(-c3ccc(/C=C/C(=O)NC4CCN(Cc5ccccc5)CC4)cc3)[nH]c2c1` had a negative-log IC50 (pIC50) of 6.23. The result for `COC(=O)c1cc2cccc(NC[C@@H](C)NC[C@H](O)c3cccc(Cl)c3)c2[nH]1` reads 6.20; that for `O=C(/C=C/c1ccc(Cl)c(Cl)c1)N1CCC(CN2CCC(c3c[nH]c4ccc(O)cc34)CC2)CC1`, 6.11. For `O=C(Nc1cccc(C(F)(F)F)c1)c1cccc2[nH]c(C(F)(F)F)nc12`, the pIC50 was 6.19. `CC(C)CC(=O)Nc1cc(=O)[nH]c2nc(-c3ccccc3)nn12`: the pIC50 was 6.46.

For the compound `Cc1ccc(-n2nc(-c3ccccc3)c3cc(C(=O)NCCN)sc32)cc1`, the pIC50 was 5.86. For `Nc1cccc(CNCc2ccc(-c3ccc(-c4nc5ccc(F)cc5[nH]4)s3)cc2)c1`, the pIC50 is 6.00. With `CCN(CC)CCCC(C)Nc1c(-c2ccc(OC)cc2)cnc2ccccc12` (stereo not given), the pIC50 is 6.05. The pIC50 values of the last two compounds are within 0.2 log units of each other.

As for `COC(=O)c1c(NC(=O)c2cccc(C(F)(F)F)c2)sc2c1CCN(Cc1ccccc1)C2`, the pIC50 is 5.87. `c1cc(-c2ccc(CNCc3ccc(-c4csnn4)cc3)cc2)cc(-c2nc3ccccc3[nH]2)c1` gave a pIC50 of 6.80. With `COc1ccccc1C1CCN(C2CCC(NC(=O)c3cc4cc(C(C)C)ccc4[nH]3)CC2)CC1` (stereo not given) the figure was 6.07; with `CCOC(=O)c1ccc(NC(=O)N[C@@H](Cc2ccc(O)cc2)C(=O)NC2CCN(Cc3ccc4c(c3)OCO4)CC2)cc1`, 5.97.

Consider `O=C(Nc1cccc(CN2CCCN(Cc3cccc(O)c3)CC2)c1)c1ccc2ccccc2c1`, for which the pIC50 was 6.10. The result for `CCOc1ccc(-c2nonc2NC(=O)c2ccccc2)cc1OCC` reads 6.59; that for `Cc1cc(=O)c(-c2ccc(OCCSc3ccc(C(F)(F)F)cn3)cc2)c(C)[nH]1`, 6.28. As to `c1cc(CNCCc2ccncc2)cc(-c2csc(-c3nc4ccccc4[nH]3)c2)c1`, the pIC50 was 6.59. This pIC50 lies 0.31 log units higher than the previous one. The compound `Nc1cccc(CNCc2ccc(-c3ccc(-c4nc5ccc(C(F)(F)F)cc5[nH]4)s3)cc2)c1` had a pIC50 of 6.36. Regarding `CC(C)(C)c1ccc(S(=O)(=O)Nc2cc(Cl)ccc2Cn2ccc(N3CCNCC3)nc2=O)cc1`, the pIC50 is 6.08. This pIC50 lies 0.28 log units lower than the previous one. The compound `COc1cc(Br)c(NC(=O)Nc2ccc(C(F)(F)F)c(O[C@@H]3CCN(C)C3)c2)cc1OC` showed a pIC50 of 6.20.

As for `COc1ccc(-c2csc3ncnc(Cl)c23)cc1OC`, the pIC50 was 6.11. For `O=C(Nc1ccccc1)N(Cc1cccc(-c2ccc(CNCc3ccc4c(c3)OCO4)cc2)c1)C1CCN(Cc2ccccc2)CC1`, the pIC50 is 6.48. `O=C(Nc1cccc(CN2CCCN(Cc3ccc(F)cc3)CC2)c1)c1ccc(Cl)c(Cl)c1` gave a pIC50 of 6.02. The result for `Cc1ccc(O)c(C(=O)c2cc(C(=O)Nc3ccccc3C)c(=O)n(-c3ccccc3C)c2)c1` reads 6.11. `O=C(NC1CC1)C1CCN(Cc2cc3ccccc3n2Cc2ccc(Cl)cc2)CC1`: the pIC50 was 6.31.

The compound `C=Cc1sc(CNCCCNc2cc(=O)c3ccccc3[nH]2)c(C)c1Br` had a pIC50 of 5.98. `CC1(C)C(=O)Nc2ccccc2N1C(=O)CN1CCN(c2ccccc2O)CC1` had a pIC50 of 5.97.

Regarding `COc1ccc2nccc([C@@H](O)CN3CCC(NC(=O)CCC(=O)c4cc(C(C)(C)C)ccc4OC)CC3)c2c1`, the pIC50 is 6.07. Turning to `NC(=NCc1ccccc1)Nc1cccc(Cc2ccccc2)n1`, the pIC50 is 6.07. The result for `CCc1cc2c3c(N)nc(N)nc3ccc2n1C(CC)CC` reads 7.22; that for `COc1ccc([N+](=O)[O-])cc1N(Cc1ccccc1-c1ccccc1)S(=O)(=O)c1ccc(C(F)(F)F)cc1[N+](=O)[O-]`, 5.98. With `Cn1c(NC(=O)C2CCCN(C(=O)c3ccc(O)c(-c4ccc(Cl)c(Cl)c4)c3)C2)nc2ccccc21` (stereo not given), the pIC50 was 6.12.

`CC(C)c1ccc(CN2CCC(NC(=O)c3ccc(-c4cccc(F)c4)s3)CC2)cc1` showed a pIC50 of 5.88. The result for `Cc1c(-c2cccc(C(C)(C)NCCCN3CCCCC3)c2)cnc(N)c1C` reads 6.03; that for `Cc1cnc2ccc(NS(=O)(=O)c3ccc4c(Cl)cccc4c3)cc2c1N1CCNCC1`, 6.12; that for `COc1ccc2nccc([C@@H](O)CN3CCC(NCCNc4cccc(F)c4)CC3)c2c1`, 6.74.

`COc1c(C2CCN(CCCCNC(=O)c3ccc(-c4ccc(Cl)cc4)c(OCC(N)=O)c3)CC2)ccc2c1CCCC2` gave a pIC50 of 6.00. With `CC(C)C[C@H](NC(=O)c1ccc(OCCN2CCOCC2)cc1)C(=O)N[C@H](/C=N/NC(=O)c1ccccc1)CCc1ccccc1` the figure was 7.22. `CCCC(=O)c1cnc2c(Oc3cc(Cl)ncn3)cccc2c1Nc1ccccc1C`: the pIC50 was 6.47. The result for `C(=N\Nc1nccc2sc(-c3cccnc3)cc12)/c1ccncc1` reads 6.68; that for `Cc1cc(N)c2cc(NC(=O)/C=C/c3ccccc3)ccc2n1`, 6.12. `CN1CCC(N2CCN(Cc3ccc(-c4ccc(-c5nc6ccccc6[nH]5)s4)cc3)CC2)CC1` gave a pIC50 of 6.85. On to `CC(C)CNCc1ccc(-c2cccc(CN(C(=O)Nc3ccccc3)C3CCN(Cc4ccccc4)CC3)c2)cc1`, for which the pIC50 was 6.39.

As to `COc1ccc2[nH]cc(C3CCN(CCCCNC(=O)c4ccc(NC(=O)c5ccc(Cl)cc5)cc4)CC3)c2c1`, the pIC50 is 5.99.

As to `O=C(NC1CCN(Cc2cccc(C(F)(F)F)c2)CC1)c1ccc(-c2cccc(Cl)c2)s1`, the negative-log IC50 (pIC50) was 5.95. The pIC50 values of the last two compounds are within 0.2 log units of each other. Compound `O=C(Nc1cccc(-c2ccc(NCCCN3CCCC3)nc2)c1)c1ccccc1` gave a pIC50 of 6.06.

As for `N#Cc1cccc(NC(=O)Nc2cccc(-c3ccc(-c4nc5ccc(C(F)(F)F)cc5[nH]4)cc3)c2)c1`, the pIC50 was 6.60.

`O=C(NC1CCN(c2ccnc3ccccc23)C1)c1cccc(C(F)(F)F)c1` (stereo not given): the pIC50 is 6.05. This pIC50 lies 0.55 log units lower than the previous one.

Regarding `Cc1cc(N[C@@H](Cc2ccccc2)C(=O)NCc2cccc(F)c2)nc(NCCc2cccnc2)n1`, the pIC50 is 5.87. `COc1ccc(CN(C)CCCSc2ccc(NC(=O)c3cccc4c(=O)cc(-c5ccccc5)[nH]c34)cc2)cc1OC` showed a pIC50 of 6.04. This pIC50 and that of the compound before are within 0.2 log units of each other. As for `O=C(Nc1cccc(-c2nn3ccccc3c2-c2ccnc(Nc3cccc(F)c3)n2)c1)c1c(F)ccc(F)c1Cl`, the pIC50 is 5.94. This pIC50 and that of the compound before are within 0.2 log units of each other. The result for `CC(=NN=C(N)N)c1ccc2c(c1)Cc1ccccc1-2` reads 5.85. For the compound `O=[N+]([O-])c1cccc(CNCC2CCC(CNCc3cccc([N+](=O)[O-])c3)CC2)c1` (stereo not given), the pIC50 is 6.85. The result for `N#Cc1ccc2c(c1)CCN(CCC1CCC(NC(=O)c3cc4ccc(Br)cc4[nH]3)CC1)C2` (stereo not given) reads 6.12.

One may read the pIC50 as the IC50 on a negative log10 scale, so that one unit is a factor of ten. A lower pIC50 goes with a large IC50.
